# Marks after values point to notes of the source that are not given here.
# Key:
# mouse [1] = test: narcosis from hexobarbital (interaction with central depressants); settings: fendizoate; for Duration of sleep: mean ± SD after intraperitoneal 80 mg/kg sodium hexobarbital, mouse; for % variation: sleeping time vs. vehicle controls
# guinea pigs = test: citric acid aerosol coughing test; settings: for ED50 / inhibition at 1 mg/kg / inhibition at 5 mg/kg / inhibition at 10 mg/kg: Cavia porcellus, inhaled or nasal; for inhibition at 1 mg/kg / inhibition at 5 mg/kg / inhibition at 10 mg/kg: read-out: inhib. %; for coughs in 3 min mean + SD: fendizoate, guinea pigs, 8 animals
# mouse [2] = test: test of potentiation of pentylenetetrazole (interaction with central stimulants); settings: fendizoate, dose 150 mg/kg; for % variation: mean score vs. vehicle controls; for Mean score: scores 0 to 4 after intraperitoneal 50 mg/kg PTZ, mouse, 20 animals
# rat = test: acute toxicity (LD50), rat; settings: HCl, female rat
# mouse [3] = test: acute toxicity (LD50), mouse; settings: HCl, female mouse
# [4] = acute toxicity (LD50), rat; settings: rat, in vivo, ip, LD50 and 95% conf. lim., HCl; female rat; intraperit.
# [5] = acute toxicity (LD50), mouse; settings: mouse, in vivo, LD50 and 95% conf. lim., HCl, female mouse
structure (smiles),measurement,setting,value
"Clc1ccc(C(OCCN2CCCCC2)c2ccccc2)cc1 (racemic) [DL-CLO, DL-cloperastine]",Duration of sleep,mouse [1]; dose 5 mg/kg,53.80 ± 9.05 min
same,% variation,mouse [1]; dose 5 mg/kg,+61.1**(°°) %
same,Duration of sleep,mouse [1]; dose 15 mg/kg,45.50 ± 6.39 min
same,% variation,mouse [1]; dose 15 mg/kg,+36.2**(°) %
same,Duration of sleep,mouse [1]; dose 50 mg/kg,25.80 ± 7.30 min
same,% variation,mouse [1]; dose 50 mg/kg,-22.8(°°) %
same,Duration of sleep,mouse [1]; dose 150 mg/kg,10.40 ± 4.18 min
same,% variation,mouse [1]; dose 150 mg/kg,-68.9** %
same,ED50,guinea pigs,7.22 mg/kg
same,inhibition at 1 mg/kg,guinea pigs,13.5%
same,inhibition at 5 mg/kg,guinea pigs,41.9%
same,inhibition at 10 mg/kg,guinea pigs,57.2%
same,coughs in 3 min mean + SD,guinea pigs; dose 1 mg/kg,57.7 ± 8.21
same,coughs in 3 min mean + SD,guinea pigs; dose 5 mg/kg,38.4 ± 5.33
same,coughs in 3 min mean + SD,guinea pigs; dose 10 mg/kg,28.3 ± 4.50
same,% variation,mouse [2],122.7%
same,Mean score,mouse [2],2.45**(°°)
"Clc1ccc(C(OCCN2CCCCC2)c2ccccc2)cc1 (single isomer, unassigned) [D-CLO, D(+) cloperastine]",LD50 and 95% conf. lim.,rat; intraperit.,106 (82-138) mg/kg
same,LD50 and 95% conf. lim.,rat; oral,602 (474-764) mg/kg
same,LD50 and 95% conf. lim.,mouse [3]; intraperit.,96 (74.4-123.8) mg/kg
same,LD50 and 95% conf. lim.,mouse [3]; oral,269 (219-331) mg/kg
same,Duration of sleep,mouse [1]; dose 5 mg/kg,71.70 ± 10.92 min
same,% variation,"mouse [1]; dose 5 mg/kg, 5 mg/kg",+114.7**(°°) %
same,Duration of sleep,mouse [1]; dose 15 mg/kg,45.80 ± 8.67 min
same,% variation,"mouse [1]; dose 15 mg/kg, 15 mg/kg",+37.1*(°) %
same,Duration of sleep,mouse [1]; dose 50 mg/kg,22.40 ± 6.37 min
same,% variation,"mouse [1]; dose 50 mg/kg, 50 mg/kg",-32.9*(°°) %
same,Duration of sleep,mouse [1]; dose 150 mg/kg,8.90 ± 3.01 min
same,% variation,"mouse [1]; dose 150 mg/kg, 150 mg/kg",-73.4**(°°) %
same,% variation,mouse [2]; 150 mg/kg,186.4%
same,Mean score,mouse [2],3.15**(°°)
"Clc1ccc(C(OCCN2CCCCC2)c2ccccc2)cc1 (single isomer, unassigned) [L-CLO, L(-) cloperastine]",LD50,[4],195 mg/kg
same,LD50 and 95% conf. lim.,rat; oral,1226 (981-1532) mg/kg
same,LD50,"[5]; ip, intraperit.",171 mg/kg
same,LD50,[5]; po,512 mg/kg
same,Duration of sleep,mouse [1]; dose 5 mg/kg,38.90 ± 7.89 min
same,% variation,"mouse [1]; dose 5 mg/kg, 5 mg/kg",+16.5%
same,Duration of sleep,mouse [1]; dose 15 mg/kg,67.60 ± 16.75 min
same,% variation,"mouse [1]; dose 15 mg/kg, 15 mg/kg",+102.3** %
same,Duration of sleep,mouse [1]; dose 50 mg/kg,43.10 ± 9.07 min
same,% variation,"mouse [1]; dose 50 mg/kg, 50 mg/kg",+29.0(°) %
same,Duration of sleep,mouse [1]; dose 150 mg/kg,18.70 ± 2.87 min
same,% variation,"mouse [1]; dose 150 mg/kg, 150 mg/kg",-44.1** %
same,ED50,guinea pigs,4.23 mg/kg
same,inhibition at 1 mg/kg,guinea pigs,32.7%
same,inhibition at 5 mg/kg,guinea pigs,45.4%
same,inhibition at 10 mg/kg,guinea pigs,66.3%
same,coughs in 3 min mean + SD,guinea pigs; dose 1 mg/kg,44.5 ± 8.65
same,coughs in 3 min mean + SD,guinea pigs; dose 5 mg/kg,36.1 ± 5.24
same,coughs in 3 min mean + SD,guinea pigs; dose 10 mg/kg,22.3 ± 5.20
same,% variation,mouse [2]; 150 mg/kg,36.4%
same,Mean score,mouse [2],1.50
